Results from the supplement of paper PMC3493320.

Each molecule was assayed on NCI-H295R (assay: IC50 (antiproliferative, ATP content)). Conditions: 48 h.
Method in brief: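 Following overnight culture of adrenocortical carcinoma cells (1500 per well) in 1536-well plates with serum-free ITS-supplemented DMEM, library compounds were pin-transferred at 8 final concentrations from 0.6 nM to 46 µM. Incubation lasted 48 h at 37 °C, 5% CO2, and the CellTiter-Glo signal was read after 20 min at room temperature. Data were fitted with a four-parameter logistic model. Each IC50 came from that fit after normalisation to vehicle and positive-control wells, and compounds without a concentration response were reported as above the top dose.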

Compound | IC50 [µM]
CN[C@@H](C)[C@@H]1CC[C@@H](N)[C@@H](O[C@H]2[C@H](O)[C@@H](O[C@H]3OC[C@](C)(O)[C@H](NC)[C@H]3O)[C@H](N)C[C@@H]2N)O1.O=S(=O)(O)O | > 46
NCc1ccccc1Sc1ccccc1CO | > 46
CCCCCC[C@@H](O)C/C=C\CCCCCCCC(=O)[O-].[K+] | > 46
NNc1nnc(NN)c2ccccc12 | > 46
CC1=C(/C=C/C(C)=C/C=C/C(C)=C/C=C/C=C(C)/C=C/C=C(C)/C=C/C2=C(C)C(=O)CCC2(C)C)C(C)(C)CCC1=O | > 46
[C@@]153[C@@H](\C(O)=C(/C[C@@]1([C@H]2CC[C@]4([C@H]([C@@H]2CC3)CC[C@@H]4O)C)C)C#N)O5 | > 46
C[C@@H](N)C(=O)O | > 46
CC(C)(C)NCC(O)c1cc(O)cc(O)c1.CC(C)(C)NCC(O)c1cc(O)cc(O)c1.O=S(=O)(O)O (centres undefined) | > 46
c1ccc2ccccc2c1 | > 46
O=C1N([C@@H](CC8=CC=CC=C8)C(N3CCC[C@@]23[H])=O)[C@@]2(O)O[C@]([C@H](C)C)1N[C@]([C@@H]6C[C@]([C@]7([H])N(C)C6)([H])C5=C4C(C7)=CNC4=CC=C5)=O | > 46
CN1CCc2c(c3ccccc3n2Cc2ccccc2)C1.CN1CCc2c(c3ccccc3n2Cc2ccccc2)C1.O=S(=O)(O)c1cccc2c(S(=O)(=O)O)cccc12 | > 46
Cc1ccccn1 | > 46
O=C(c1ccccc1)C(O)c1ccccc1 (centres undefined) | > 46
CC(C)[C@@H](C)/C=C/[C@@H](C)[C@H]1CC[C@H]2/C(=C/C=C3\C[C@@H](O)CC[C@@H]3C)CCC[C@]12C | > 46
CN1CCC(=C2c3ccccc3C=Cc3ccccc32)CC1 | > 46
CN1C(=O)CN=C(c2ccccc2)c2cc([N+](=O)[O-])ccc21 | > 46
CCCC(C)C1(CC)C(=O)N=C(O)NC1=O (centres undefined) | > 46
CN1[C@@H]2CC[C@@H]1CC(OC1c3ccccc3CCc3ccccc31)C2.O=C(O)CC(O)(CC(=O)O)C(=O)O (some centres undefined) | > 46
Cl.NCC(O)c1cccc(O)c1 (centres undefined) | > 46
Cl.NCCc1cc(O)c(O)cc1O | > 46
CN(C)C(=N)NC(=N)N.Cl | > 46
FCOC(C(F)(F)F)C(F)(F)F | > 46
CCC(COC(=O)c1cc(OC)c(OC)c(OC)c1)(c1ccccc1)N(C)C.O=C(O)/C=C\C(=O)O (centres undefined) | > 46
O=c1[n-]c(=O)n(Cl)c(=O)n1Cl.[Na+] | > 46
N=C(N)NN.N=C(N)NN.O=S(=O)(O)O | > 46
CCCCC(CC)COC(=O)C(C#N)=C(c1ccccc1)c1ccccc1 (centres undefined) | > 46

Compound | IC50 [µM]
CC(C)=CCC/C(C)=C/CO | > 46
NC(=O)CS(=O)C(c1ccccc1)c1ccccc1 (centres undefined) | > 46
COc1cc(C(=S)N2CCOCC2)ccc1O | > 46
O=C1CC2(CCCC2)CC(=O)N1CCCCN1CCN(c2ncccn2)CC1 | > 46
NC(N)=O | > 46
FC(F)(F)C(F)(F)C(F)(F)C(F)(F)C(F)(F)F | > 46
CC(C)(C)NC[C@H](O)COc1ccccc1C1CCCC1.CC(C)(C)NC[C@H](O)COc1ccccc1C1CCCC1.O=S(=O)(O)O | > 46
O=S(=O)([O-])CCS.[Na+] | > 46
CN1CCN(C2=Nc3ccccc3Sc3ccc(Cl)cc32)CC1 | > 46
NCC1(CC(=O)O)CCCCC1 | > 46
Cl.O=C1OC(CN2CCOCC2)CN1N=Cc1ccc([N+](=O)[O-])o1 (centres undefined) | > 46
O=C([O-])CN(CCN(CC(=O)[O-])CC(=O)[O-])CC(=O)[O-].[Fe+3].[Na+] | > 46
O=C(O)/C=C\C(=O)O.O=C(O)/C=C\C(=O)O.c1cc(CN2CCCCC2)cc(OCCCNc2nc3ccccc3s2)c1 | > 46
O[C@](CN2N=CN=C2)([C@H]([C@@]3=C(F)C=NC=N3)C)C1=CC=C(F)C=C1F | > 46
COC(=O)[C@@H](N)CCCN/C(N)=N/[N+](=O)[O-] | > 46
O=C1CN=C(c2ccccc2)c2cc([N+](=O)[O-])ccc2N1 | > 46
O=[N+]([O-])O[C@H]1CO[C@H]2[C@@H]1OC[C@H]2O[N+](=O)[O-] | > 46
NCCc1ccc(O)c(O)c1 | > 46
ClC4=CC3=[C@@](C=C4O)[C@H]2C1=CC=CC=C1CC[C@@H]2N(C)CC3 | > 46
OC1=C(C=C(/C=C(C#N)/C#N)C=C1)O | > 46
Cl.N=C(N)NC(=N)NCCc1ccccc1 | > 46
NCCN | > 46
CN1CCCCC1CCN1c2ccccc2Sc2ccc(S(C)=O)cc21 (centres undefined) | > 46
C[N+]1([O-])[C@@H]2CC[C@H]1C[C@@H](OC(=O)C(CO)c1ccccc1)C2.Cl (some centres undefined) | > 46
CS(=O)(=O)O.N=C(N)Nc1ccc(C(=O)Oc2ccc3cc(C(=N)N)ccc3c2)cc1 | > 46
CN1CCN(CC(=O)N2c3ccccc3C(=O)Nc3cccnc32)CC1 | > 46

Results, then the molecule that gave them:

IC50 [µM] | Compound
> 46 | O=C([O-])CCC1=C(C)C/3=N\C1=C/C2=C(CCC([O-])=O)C(C)=C(/C=C(C(C=C)=C4C)\N=C4/C=C(C(C=C)=C5C)\N\C5=C3)N2.[Na+].[Na+]
> 46 | CC(=O)Nc1ccc(CC(=O)O)cc1
> 46 | OC[C@H]1O[C@@H](Oc2ccc(O)cc2)[C@H](O)[C@@H](O)[C@@H]1O
> 46 | C=CC1=C(C(=O)O)N2C(=O)[C@@H](NC(=O)C(=NO)c3csc(N)n3)[C@H]2SC1
> 46 | CC[C@H](NC(C)C)[C@H](O)c1ccc(O)c2[nH]c(=O)ccc12
> 46 | CN(C)C=Nc1c(I)cc(I)c(CCC(=O)[O-])c1I.[Na+]
> 46 | CCN1CCC[C@H]1CNC(=O)c1cc(S(N)(=O)=O)ccc1OC
> 46 | O=C1C=C3[C@]([C@@]2(F)[C@@H](O)C[C@@]4(C)[C@](C[C@@]5([H])OC(C)(C)O[C@@]45[C@@](CO)=O)([H])[C@@]([H])2C[C@@H]3F)(C)C=C1
> 46 | Cc1cccc(C)c1NC(=O)c1ccccc1C(=O)O
> 46 | CC(=O)Oc1cccc(O)c1
> 46 | [H][C@]13[C@](O3)([H])[C@@H]2CC(OC(C(C4=CC=CS4)(C5=CC=CS5)O)=O)C[C@H]1[N@@+](C)2C.[Br-] (some centres undefined)
> 46 | O=C(O)COC(=O)Cc1ccccc1Nc1c(Cl)cccc1Cl
> 46 | CC(C)CN(C[C@@H](OP(=O)([O-])[O-])[C@H](Cc1ccccc1)NC(=O)O[C@H]1CCOC1)S(=O)(=O)c1ccc(N)cc1.[Ca+2]
> 46 | CCN(CC)CCNC(C(=O)OCCC(C)C)c1ccccc1 (centres undefined)
> 46 | CN(C)[C@@H]1C(O)=C(C(N)=O)C(=O)[C@@]2(O)C(O)=C3C(=O)c4c(O)cccc4[C@@](C)(O)[C@H]3[C@H](O)[C@@H]12.O.O
> 46 | Cl.O=C(Nc1ccccc1)OCC(CN1CCCCC1)OC(=O)Nc1ccccc1 (centres undefined)
> 46 | CC(C)(O/N=C(\C(=O)N[C@@H]1C(=O)N2C(C(=O)[O-])=C(C[n+]3ccccc3)CS[C@H]12)c1csc(N)n1)C(=O)O.O.O.O.O.O
> 46 | Cc1cnc(NC(=O)C2=C(O)c3ccccc3S(=O)(=O)N2C)s1
> 46 | CCCCN1C[C@H](O)[C@@H](O)[C@H](O)[C@H]1CO
> 46 | C[C@H]1[C@H](NC(=O)C(=NOC(C)(C)C(=O)O)c2csc(N)n2)C(=O)N1S(=O)(=O)O
> 46 | Cn1cnc2c1c(=O)[nH]c(=O)n2C
> 46 | Cc1nc2c([nH]1)c(=O)n(C)c(=O)n2Cc1ccco1
> 46 | O=C(OC(C)C)/C(C(OC(C)C)=O)=C1SC=CS/1
> 46 | CCC1=C(C)CN(C(=O)NCCc2ccc(S(=O)(=O)NC(=O)N[C@H]3CC[C@H](C)CC3)cc2)C1=O

IC50 [µM] | Compound
> 46 | CN(C(=O)CCCOc1ccc2[nH]c(=O)ccc2c1)C1CCCCC1
> 46 | CCC(Cc1c(I)cc(I)c(N)c1I)C(=O)O (centres undefined)
> 46 | N[C@@H](COP(=O)(O)O)C(=O)O
> 46 | CCCCC1C(=O)N(c2ccccc2)N(c2ccc(O)cc2)C1=O (centres undefined)
> 46 | [C@@]2\1(\C(=C/C(/C=C/1)=O)[C@H](C[C@@H]4[C@@H]2[C@H](C[C@@]3([C@](C(=O)CO)(O)CC[C@H]34)C)O)C)C
> 46 | CC1CCCCN1CCCOC(=O)c1ccccc1.Cl (centres undefined)
> 46 | Cc1ccc(=O)n(-c2ccccc2)c1
> 46 | CC(CCc1ccccc1)NCC(O)c1ccc(O)c(C(N)=O)c1.Cl (centres undefined)
> 46 | CCOC(=O)OC(C)OC(=O)[C@@H]1N2C(=O)[C@@H](NC(=O)[C@H](N)c3ccccc3)[C@H]2SC1(C)C.Cl (some centres undefined)
> 46 | CCOc1ccc(NC(C)=O)cc1
> 46 | NS(=O)(=O)c1cc2c(cc1Cl)NC(CC1CCCC1)NS2(=O)=O (centres undefined)
> 46 | CC(C)NCC(O)c1ccc(NS(C)(=O)=O)cc1 (centres undefined)
> 46 | CCC(C)(CN(C)C)OC(=O)c1ccccc1.Cl (centres undefined)
> 46 | N/C1=N/C(=O)N(/C=N1)[C@@H]2O[C@H](CO)[C@@H](O)[C@H]2O
> 46 | CCCCC(CC)COC(=O)CC(C(=O)OCC(CC)CCCC)S(=O)(=O)[O-].[Na+] (centres undefined)
> 46 | O=C3N1/C(=C(/C)CS[C@@H]1[C@@H]3NC(=O)[C@H](N)c2ccccc2)C(O)=O
> 46 | O=C(O)CNC(=O)c1ccccc1I
> 46 | CCCCC(CC)COS(=O)(=O)[O-].[Na+] (centres undefined)
> 46 | CCn1cc(C(=O)O)c(=O)c2cnc(N3CCNCC3)nc21
> 46 | c13c(C(\C(=C/N1C2CC2)C(O)=O)=O)c(c(c(c3F)N4C[C@@H](N[C@@H](C4)C)C)F)N
> 46 | CSc1ccc(C(=O)c2[nH]c(=O)[nH]c2C)cc1
> 46 | Nc1ccc(S(=O)(=O)Nc2ccc(Cl)nn2)cc1
> 46 | CC(=O)OCC1=C(C(=O)O)N2C(=O)[C@@H](NC(=O)Cc3cccs3)[C@H]2SC1
